The subject of data set [1] is rat Passive Cutaneous Anaphylaxis (PCA) response. Nature of the data set: reagin-mediated rat Passive Cutaneous Anaphylaxis (PCA) screening test. It is filed as in vivo, rat (Sprague-Dawley). How it is done: The reagin-mediated rat Passive Cutaneous Anaphylaxis (PCA) screening test used to evaluate the present compounds is generally regarded as one of the best animal models for use in predicting the antiallergy activity of test compounds in man. Briefly, the method consists of passive sensitization of skin sites on the test animals with reaginic antibodies followed after 24 hours by administration of the test drug and antigen challenge. The allergic response is measured by use of Evans' blue dye and is evaluated by the spot diameter at the injection site. Details of the test are provided below.
A substituted ovalbumin antigen is used both as immunogen and challenging antigen. The antigen is prepared as follows: 500 mg. ovalbumin (EA) and 500 mg. K2 CO3 are dissolved in 25 ml. distilled H2 O and stirred at room temperature for 5 minutes. Five hundred (500) mg. dinitrobenzene sulfonic acid, Na^+ salt, (previously recrystallized from hot absolute ethanol) is then added slowly with continued stirring. The reaction mixture is then immediately placed in the dark and allowed to proceed for 2 hours with constant stirring. After 2 hours the mixture is placed in suitable dialysis tubing and dialyzed against 5 changes (4 liters each) of distilled H2 O at 5° C. After dialysis the product is lyophilized and stored at room temperature in a brown or amber container. The antigen obtained will appear as a light yellow, amorphous solid which is very soluble in water or saline. It is designated as DNP denatured ovalbumin (DNP-d EA).
Adult, male Sprague-Dawley rats are used as a source of reagin-rich antisera for the PCA model. Immunization is by a combination of DNP-d EA on Al(OH)3 gel and B. pertussis vaccine. Preparation of the DNP-d EA-gel immunogen is as follows: Dissolve the DNP-d EA in TBS so as to give a concentration of 10 mg./ml. Slowly add 1 ml. of this solution to 10 ml. Al(OH)3 gel (10 mg. solids/ml.) with constant stirring at room temperature. Stir the mixture an additional 30 minutes to insure a uniform adsorption of antigen on gel.
The resulting preparation is then used in combination with phase I B. pertussis vaccine to immunize male S/D rats as follows: For each rat administer 0.1 ml. DNP-d EA-gel suspension intramuscularly in each hind leg (200 μg DNP-d EA and 2 mg. gel total dose). Follow these injections by the intraperitoneal administration of 1.0 ml. B. pertussis vaccine (10-20 × 10^9 organisms). The use of light ether anesthesia during this procedure is recommended to insure proper intramuscular and intraperitoneal injections. Nine days following immunization (but no longer than 10) the animals are exsanguinated by cardiac puncture or abdominal aorta cannulation under ether or pentobarbital anesthesia. The collected whole blood is allowed to clot, the serum separated by centrifugation and the individual serum samples stored frozen until assayed for IgE content.
Individual serum samples should be screened for reaginic antibody concentration before being pooled with other sera, as not all rats respond to immunization procedures with reagin production. A 1:50 saline dilution of serum from each immunized rat is used for this purpose. Intradermal injections of 0.05 ml. of the diluted sera are made in the shaven backs of two small female recipient rats, 100-120 gms. Several serum samples can be tested simultaneously in recipient animals. After a 24 to 48 hour latent period antigen challenge is accomplished by intravenous administration to each rat of 1 mg. DNP-d EA in 0.5 ml. of 0.5% Evans' blue dye in saline. Sera which show positive PCA reactions at the 1:50 dilution, as measured 20 to 30 minutes post-challenge are pooled, dispensed in small aliquots and stored at -70° C. or lower until used. Negative sera may be discarded.
The IgE titer of the antisera pool should then be determined. […]

The conditions of data set [2]: treatment of bronchial asthma; cited from earlier work.
For data set [3] the following is noted: must be administered by inhalation; cited from earlier work.
Data set [4] has as its system release of mediators, e.g. histamine and SRS-A. The following applies: administered to asthmatic patients prior to inhalation of specific antigens; cited from earlier work.
[5] abbreviates: po, 10 min prior to antigen challenge, read-out: ID50 (dose of compound that inhibits 50% of the response), p.o.
[6] abbreviates: iv, test compounds given 1-5 min prior to antigen challenge, DSCG at time of challenge, read-out: ID50 (dose of compound that inhibits 50% of the response), i.v.

Where two headings read alike, the source gives them in different places.

Consider `Cc1ccc2ncc(-c3nnn[nH]3)c(=O)n2c1` [Example 4, 7-Methyl-3-(1H-tetrazol-5-yl)-4H-pyrido[1,2-a]pyrimidin-4-one], for which the ED50 in data set [1] (setting [5]) was ~0.1 mg/kg.
As for `CN1[C@@H]2CC[C@H]1C[C@@H](OC(=O)C(CO)c1ccccc1)C2` (stereo partly drawn) [atropine], in data set [2], the side effects result was “cardiac stimulation and gastrointestinal distress”.
`O=C(O)c1cc(=O)c2c(OCC(O)COc3cccc4oc(C(=O)O)cc(=O)c34)cccc2o1` [DSCG, Disodium cromoglycate, reference compound]: the oral absorption entry in data set [3] is reported as “not orally absorbed”. Moreover, the “inhibition of release of mediators, e.g. histamine and SRS-A” value in data set [4] is “inhibits the release of mediators”. For the same compound, the ED50 in data set [1] (setting [6]) was ~0.6 mg/kg; in data set [1] (setting [5]), > 30 mg/kg.
As for `CCc1cccn2c(=O)c(-c3nnn[nH]3)cnc12` [Example 12, 9-Ethyl-3-(1H-tetrazol-5-yl)-4H-pyrido[1,2-a]pyrimidin-4-one], in data set [1] (setting [5]), the ED50 is ~0.0033 mg/kg.
In the case of `CCCCc1ccc2ncc(-c3nnn[nH]3)c(=O)n2c1` [Example 7, 7-n-Butyl-3-(1H-tetrazol-5-yl)-4H-pyrido[1,2-a]pyrimidin-4-one], in data set [1] (setting [5]), the ED50 was ~0.1 mg/kg.
As to `CC(C)NCC(O)c1ccc(O)c(O)c1` (stereo not drawn) [isoproterenol], in data set [2], the side effects result was “cardiac stimulation and gastrointestinal distress”.
For `O=c1c(-c2nnn[nH]2)cnc2ccccn12` [Example 1, 3-(1H-Tetrazol-5-yl)-4H-pyrido[1,2-a]pyrimidin-4-one], the ED50 in data set [1] (setting [6]) is 0.06 mg/kg; in data set [1] (setting [5]), ~0.1 mg/kg.
Take `O=c1c(-c2nnn[nH]2)cnc2ccc(Cl)cn12` [Example 9, 7-Chloro-3-(1H-tetrazol-5-yl)-4H-pyrido[1,2-a]pyrimidin-4-one]: the ED50 in data set [1] (setting [5]) was ~0.07 mg/kg.
`CCc1ccc2ncc(-c3nnn[nH]3)c(=O)n2c1` [Example 6, 7-Ethyl-3-(1H-tetrazol-5-yl)-4H-pyrido[1,2-a]pyrimidin-4-one]: the ED50 in data set [1] (setting [5]) stood at 0.04 mg/kg.
In the case of `Cc1cccn2c(=O)c(-c3nnn[nH]3)cnc12` [Example 10, 9-Methyl-3-(1H-tetrazol-5-yl)-4H-pyrido[1,2-a]pyrimidin-4-one], the ED50 in data set [1] (setting [5]) turned out to be 0.0066 mg/kg.
`CNC[C@H](O)c1ccc(O)c(O)c1` [epinephrine]: the side effects entry in data set [2] is “cardiac stimulation and gastrointestinal distress”.
As for `Cc1cc(C)c2ncc(-c3nnn[nH]3)c(=O)n2c1` [Example 11, 7,9-Dimethyl-3-(1H-tetrazol-5-yl)-4H-pyrido[1,2-a]pyrimidin-4-one], in data set [1] (setting [5]), the ED50 amounted to 0.014 mg/kg.
On the same count and under the same terms, as for `Cc1ccn2c(=O)c(-c3nnn[nH]3)cnc2c1` [Example 5, 8-Methyl-3-(1H-tetrazol-5-yl)-4H-pyrido[1,2-a]pyrimidin-4-one], the figure is 2.4 mg/kg.
Same read-out and setting: the value for `O=c1c(-c2nnn[nH]2)cnc2ccc(-c3ccccc3)cn12` [Example 8, 7-Phenyl-3-(1H-tetrazol-5-yl)-4H-pyrido[1,2-a]pyrimidin-4-one] was 0.05 mg/kg.

These data come from US4122274A, “3-Tetrazolo-5,6,7,8-substituted-pyrido[1,2-a]pyrimidin-4-ones” (priority 1977, dated 1978).
